From patent publication US8318980B2, “UV absorbing compounds” (Fujifilm Manufacturing Europe B.V., priority 2007, dated 2012)
“Also recorded” adds a separate entry of the source.

Assays:
[1] = Solubility test in C12-C15 alkyl benzoate oil (Finsolv TN); format: physicochemical; design: key to Solubility in Finsolv TN, dissolved amount (m/m %) 1% / Solubility in Finsolv TN, dissolved amount (m/m %) 5% / Solubility in Finsolv TN, dissolved amount (m/m %) 20% / Solubility in Finsolv TN, dissolved amount (m/m %) 50% / Solubility in Finsolv TN, dissolved amount (m/m %) 80% / Solubility in Finsolv TN, dissolved amount (m/m %) 90%: +=well-soluble; −=not soluble; conditions: dissolved at 80° C. for 1 hour, cooled to room temperature, inspected after 24 hours; for Solubility in Finsolv TN, dissolved amount (m/m %) 1%: 1% m/m; for Solubility in Finsolv TN, dissolved amount (m/m %) 5%: 5% m/m; for Solubility in Finsolv TN, dissolved amount (m/m %) 20%: 20% m/m; for Solubility in Finsolv TN, dissolved amount (m/m %) 50%: 50% m/m; for Solubility in Finsolv TN, dissolved amount (m/m %) 80%: 80% m/m; for Solubility in Finsolv TN, dissolved amount (m/m %) 90%: 90% m/m
Description: The aminobutadiene compounds according to the present invention have an optimised solubility for cosmetic oils. […] In Table 3, the solubility of compounds 4, 12 and 13 is shown at various concentrations (+=well-soluble; -=not soluble). The compounds were dissolved at 80° C. while stirring for 1 hour and cooled down to room temperature. After 24 hours the solutions were inspected for any precipitates or crystals.

[2] = Heat stability test (UV-absorption left after storage at 50° C.); format: physicochemical; conditions: for Heat stability: UV-absorption left after 5 days: 5 days at 50° C. in the dark; for Heat stability: UV-absorption left after 5 days / Heat stability: UV-absorption left after 50 days / Heat stability: UV-absorption left after 100 days: 1.5% in C12-C15 alkyl benzoate oil (compound 12: 5% in water), 375 nm versus sample stored at room temperature; for Heat stability: UV-absorption left after 50 days: 50 days at 50° C. in the dark; for Heat stability: UV-absorption left after 100 days: 100 days at 50° C. in the dark; for heat stability, in words: in C12-C15 alkylbenzoate oils
Description: Hereto, 1.5% solutions were prepared of compounds 4-11 and 13 in C12-C15 alkyl benzoate oil. […] The solutions were stored in closed vessels at 50° C. in the dark. After 5, 50 and 100 days, the UV-absorption of a diluted sample was measured at 375 nm comparative to a corresponding sample stored at room temperature. The UV-absorption left after each time span is shown in Table 4 indicated by + and − signs. ++ means >95% left, +− implies between 50-95% left, − indicates <50% left.

[3] = test system: human skin; assay: Skin penetration test in diffusion cell; format: in vitro ADME; conditions: for penetration into or through the skin (UV analysis of DMSO skin extracts), in words / penetration through the skin (UV-analysis of collected receptor fluids), in words: human skin, diffusion cell; for penetration through the skin (UV-analysis of collected receptor fluids), in words: 20 hrs
Description: The skin-penetration was evaluated based on the same method described on page 21 of WO2006/009451. FIG. 2 is a drawing of the skin penetration test equipment, wherein (1) indicates the position of the test sample (donor compound), (2) an ⅛″ OD× 1/32″ wall tubing, (3) the receptor input, (4) the receptor compartment and (5) the compound and receptor output that is subjected to analysis.
A compound 3 donor solution was prepared by dissolving 30 mg of compound 3 in 4 ml EtOH and 7 ml phosphate buffer (PBS) at pH 7.4. Compound 4, 6, 7, 8 and 9 donor solutions were prepared by dispersing 80 mg of these compounds in olive oil.
For each compound 4 pieces of human skin (Ø ca 3 cm, mostly epidermis) were applied on a dialysis membrane and mounted into the diffusion cell shown in the FIG. 2. The figure is a schematic drawing of the diffusion cell, wherein is indicated 1: donor compound, 2: receptor compartment, 3: receptor input, 4: compound and receptor output for analysis, 5: ⅛″ OD× 1/32″ wall tubing. The cells were mounted on a temperature controlling and stirring device. The temperature was kept at 37°. The receptor fluid was a PBS buffer. The receptor compartment was stirred magnetically. 400 μl of the donor solution was applied. The receptor fluid flowing at a speed of 1 ml/hr was collected into glass tubes (1 tube/2 hrs). After 20 hrs the penetration experiment was terminated.
Furthermore the skin parts were extracted with DMSO to dissolve any UV-absorber in the epidermis. The extracts were analysed by UV.

Row | Solubility in Finsolv TN, dissolved amount (m/m %) 1% [1] | Solubility in Finsolv TN, dissolved amount (m/m %) 5% [1] | Solubility in Finsolv TN, dissolved amount (m/m %) 20% [1] | Solubility in Finsolv TN, dissolved amount (m/m %) 50% [1] | Solubility in Finsolv TN, dissolved amount (m/m %) 80% [1] | Solubility in Finsolv TN, dissolved amount (m/m %) 90% [1] | Heat stability: UV-absorption left after 5 days [2] | Heat stability: UV-absorption left after 50 days [2] | Heat stability: UV-absorption left after 100 days [2] | Compound | penetration into or through the skin (UV analysis of DMSO skin extracts), in words [3] | penetration through the skin (UV-analysis of collected receptor fluids), in words [3] | heat stability, in words [2] | Presence in receptor fluid after 6 h ([3]; human skin (mostly epidermis), 37°, PBS receptor fluid, compound 3 donor in EtOH/PBS pH 7.4, others dispersed in olive oil, UV-analysis) | Presence in skin extract ([3]; skin parts extracted with DMSO after the penetration experiment, UV analysis)
1 | − | − | − | − | − | − | ++ (++ means >95% left) | ++ (++ means >95% left) | ++ (++ means >95% left) | CC(C)OC(=O)C(=CC=CN(CCCCCCN(C=CC=C(C(=O)OC(C)C)S(=O)(=O)c1ccccc1)Cc1ccccc1)CCCCCCN(C=CC=C(C(=O)OC(C)C)S(=O)(=O)c1ccccc1)Cc1ccccc1)S(=O)(=O)c1ccccc1 [Compound 17] |  |  |  |  | 
2 |  |  |  |  |  |  |  |  |  | CCCCCCCCOC(=O)C(=CC=CN(C(C)=O)c1ccccc1)S(=O)(=O)c1ccccc1 [aminobutadiene 3, reference compound] | observed inside the skin sample | penetration |  | + (a ‘+’ means that more than 50% of the substance penetrates the skin) | + (a ‘+’ means that more than 50% of the substance penetrates the skin)
3 |  |  |  |  |  |  | ++ (++ means >95% left) | +− (+− implies between 50-95% left) | − (− indicates <50% left) | CCCCCCCCOC(=O)C(=CC=CNCCN(CCNC=CC=C(C(=O)OCCCCCCCC)S(=O)(=O)c1ccccc1)CCNC=CC=C(C(=O)OCCCCCCCC)S(=O)(=O)c1ccccc1)S(=O)(=O)c1ccccc1 [Compound 10, reference compound] |  |  |  |  | 
4 |  |  |  |  |  |  | ++ (++ means >95% left) | +− (+− implies between 50-95% left) | − (− indicates <50% left) | CCCCCCCCOC(=O)C(=CC=CNCCCN(CCCCN(CCCNC=CC=C(C(=O)OCCCCCCCC)S(=O)(=O)c1ccccc1)CCCNC=CC=C(C(=O)OCCCCCCCC)S(=O)(=O)c1ccccc1)CCCNC=CC=C(C(=O)OCCCCCCCC)S(=O)(=O)c1ccccc1)S(=O)(=O)c1ccccc1 [Compound 11, reference compound] |  |  |  |  | 
5 | + | + | + | + | + | + | ++ (++ means >95% left) | ++ (++ means >95% left) | ++ (++ means >95% left) | CCCCCCCCCCCCCCCCCCOC(=O)C(=CC=CN(CCCCCCN(C=CC=C(C(=O)OCCCCCCCCCCCCCCCCCC)S(=O)(=O)c1ccccc1)Cc1ccccc1)CCCCCCN(C=CC=C(C(=O)OCCCCCCCCCCCCCCCCCC)S(=O)(=O)c1ccccc1)Cc1ccccc1)S(=O)(=O)c1ccccc1 [Compound 19] |  |  |  |  | 
6 |  |  |  |  |  |  | ++ (++ means >95% left) | +− (+− implies between 50-95% left) | +− (+− implies between 50-95% left) | CCCCCCCCOC(=O)/C(=C/C=C/NCCCCCCN(/C=C\C=C(/C(=O)OCCCCCCCC)S(=O)(=O)c1ccccc1)CCCCCCN/C=C/C=C(\C(=O)OCCCCCCCC)S(=O)(=O)c1ccccc1)S(=O)(=O)c1ccccc1 [Compound 5, reference compound] |  |  |  |  | 
7 | + | − | − | − | − | − | ++ (++ means >95% left) | ++ (++ means >95% left) | ++ (++ means >95% left) | CCCCC(CC)COC(=O)C(=CC=CN(CCCCCCN(C=CC=C(C(=O)OCC(CC)CCCC)S(=O)(=O)c1ccccc1)Cc1ccccc1)CCCCCCN(C=CC=C(C(=O)OCC(CC)CCCC)S(=O)(=O)c1ccccc1)Cc1ccccc1)S(=O)(=O)c1ccccc1 (centres unmarked) [Compound 18] |  |  |  |  | 
8 | + | + | + | − | − | − | ++ (++ means >95% left) | ++ (++ means >95% left) | ++ (++ means >95% left) | CCCCCCCCOC(=O)C(=CC=CN(CCCC)CCN(C=CC=C(C(=O)OCCCCCCCC)S(=O)(=O)c1ccccc1)CCN(C=CC=C(C(=O)OCCCCCCCC)S(=O)(=O)c1ccccc1)CCCC)S(=O)(=O)c1ccccc1 [Compound 13] |  |  | very heat stable; also recorded: good heat stability |  | 

Row | Compound | Solubility in Finsolv TN, dissolved amount (m/m %) 1% [1] | Solubility in Finsolv TN, dissolved amount (m/m %) 5% [1] | Solubility in Finsolv TN, dissolved amount (m/m %) 20% [1] | Solubility in Finsolv TN, dissolved amount (m/m %) 50% [1] | Solubility in Finsolv TN, dissolved amount (m/m %) 80% [1] | Solubility in Finsolv TN, dissolved amount (m/m %) 90% [1] | Heat stability: UV-absorption left after 5 days [2] | Heat stability: UV-absorption left after 50 days [2] | Heat stability: UV-absorption left after 100 days [2] | penetration into or through the skin (UV analysis of DMSO skin extracts), in words [3] | penetration through the skin (UV-analysis of collected receptor fluids), in words [3] | heat stability, in words [2] | Presence in receptor fluid after 6 h ([3]; human skin (mostly epidermis), 37°, PBS receptor fluid, compound 3 donor in EtOH/PBS pH 7.4, others dispersed in olive oil, UV-analysis) | Presence in skin extract ([3]; skin parts extracted with DMSO after the penetration experiment, UV analysis)
9 | CCCCCCCCOC(=O)C(=CC=CN(CCN(C=CC=C(C(=O)OCCCCCCCC)S(=O)(=O)c1ccccc1)Cc1ccccc1)CCN(C=CC=C(C(=O)OCCCCCCCC)S(=O)(=O)c1ccccc1)Cc1ccccc1)S(=O)(=O)c1ccccc1 [Compound 9] |  |  |  |  |  |  | ++ (++ means >95% left) | ++ (++ means >95% left) | ++ (++ means >95% left) | do not penetrate into or through the skin | no penetration | very heat stable; also recorded: good heat stability |  | 
10 | CCCCCCCCOC(=O)C(=CC=CN(CCCC)CCCCCCN(C=CC=C(C(=O)OCCCCCCCC)S(=O)(=O)c1ccccc1)CCCCCCN(C=CC=C(C(=O)OCCCCCCCC)S(=O)(=O)c1ccccc1)CCCC)S(=O)(=O)c1ccccc1 [Compound 6] |  |  |  |  |  |  | ++ (++ means >95% left) | ++ (++ means >95% left) | ++ (++ means >95% left) | do not penetrate into or through the skin | no penetration | very heat stable |  | 
11 | CCCCCCCCOC(=O)C(=CC=CN(CCCN(CCCCN(CCCN(C=CC=C(C(=O)OCCCCCCCC)S(=O)(=O)c1ccccc1)Cc1ccccc1)CCCN(C=CC=C(C(=O)OCCCCCCCC)S(=O)(=O)c1ccccc1)Cc1ccccc1)CCCN(C=CC=C(C(=O)OCCCCCCCC)S(=O)(=O)c1ccccc1)Cc1ccccc1)Cc1ccccc1)S(=O)(=O)c1ccccc1 [Compound 8] |  |  |  |  |  |  | ++ (++ means >95% left) | ++ (++ means >95% left) | ++ (++ means >95% left) | do not penetrate into or through the skin | no penetration | very heat stable |  | 
